Data: patent US20160257697A1, “THIOPHENE-SUBSTITUTED TETRACYCLIC COMPOUNDS AND METHODS OFUSE THEREOF FOR THE TREATMENT OF VIRAL DISEASES” (priority 2013, published 2016)
Read-outs that look alike come from different tables or passages of the source.

Experiments:
Assay in all cases: microbe, parasite or virus in culture
Type in all cases: cell-based, Hepatitis C virus (HCV)
HCV replicon 1AQ30D = conditions: Replicon Assay B
HCV replicon 1B = conditions: Replicon Assay B
HCV replicon 1AY93H = conditions: Replicon Assay A
In short: (§1)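 Cells seeded 2000/well + compound; 0.5% DMSO, 5% FBS; harvest day 3, lyse. Multiplex TaqMan RT-PCR for replicon (Neo probe) and cyclophilin RNA; amounts from Ct vs log(ng) linear regression of replicon total RNA standards.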

HCV replicon 1A = conditions: Replicon Assay A
In short: as §1

HCV replicon 2B = conditions: Replicon Assay A
In short: as §1

[1] = Hepatitis C virus, read-out: 1A Q30D IC50 (nM), replicon 1AQ30D
[2] = read-out: 1A Y93H IC50, replicon 1AY93H
[3] = read-out: 1A Q30D IC50, HCV replicon 1A Q30D
[4] = read-out: 1A Y93H IC50, HCV replicon 1A Y93H
[5] = read-out: 2B IC50, HCV replicon 2B
[6] = read-out: 1A Q30D IC50, replicon 1AQ30D
[7] = Hepatitis C virus, read-out: 1A Y93H IC50 (nM), replicon 1AY93H
[8] = Hepatitis C virus, read-out: 2B IC50 (nM), replicon 2B

Structure (SMILES) | IC50 (HCV replicon 1AQ30D; [1]) [nM] | IC50 (HCV replicon 1B; Hepatitis C virus, replicon 1B) [pM] | IC50 (HCV replicon 1AY93H; [2]) [nM] | IC50 (HCV replicon 2B; read-out: 2B IC50, replicon 2B) [nM] | IC50 (HCV replicon 1AY93H; [7]) [nM] | IC50 (HCV replicon 1A; Hepatitis C virus, replicon 1A) [pM] | IC50 (HCV replicon 2B; [8]) [nM] | other results
COC(=O)NC(C(=O)N1CCC[C@H]1c1ncc(-c2cc(F)c3c(c2)OC(c2ccc(C4CC4)s2)n2c-3cc3cc(-c4cnc([C@@H]5CCCN5C(=O)C(NC(=O)OC)C(C)(C)F)[nH]4)ccc32)[nH]1)C(C)(C)F (single isomer, unassigned) [Compound 111] | 0.13 | 1.7 | 0.074 | 0.038 |  |  |  | IC50 (HCV replicon 1A; replicon 1A): 3.2 pM
COC(=O)NC(C(=O)N1[C@@H]2C[C@@H]2C[C@H]1c1ncc(-c2ccc3c(c2)cc2n3C(c3ccc(CC4CC4)s3)Oc3cc(-c4cnc([C@@H]5CCCN5C(=O)[C@@H](NC(=O)OC)C(C)C)[nH]4)cc(F)c3-2)[nH]1)C1CCOC(C)(C)C1 (single isomer, unassigned) [Compound 418] |  |  |  |  |  |  |  | IC50 (HCV replicon 1AQ30D; [3]): 0.862 nM; IC50 (HCV replicon 1B; HCV replicon 1B): 2.7 pM; IC50 (HCV replicon 1AY93H; [4]): 0.093 nM; IC50 (HCV replicon 1A; HCV replicon 1A): 2.7 pM; IC50 (HCV replicon 2B; [5]): 0.16 nM
COC(=O)NC(C(=O)N1CCC[C@H]1c1ncc(-c2ccc3c(c2)cc2n3C(c3cc4ccccc4s3)Oc3cc(-c4cnc([C@@H]5CCCN5C(=O)[C@@H](NC(=O)OC)C(C)C)[nH]4)cc(F)c3-2)[nH]1)C1C[C@@H](C)O[C@@H](C)C1 (single isomer, unassigned) [Compound 641] |  |  |  |  |  |  |  | IC50 (HCV replicon 1AQ30D; [3]): 0.306 nM; IC50 (HCV replicon 1B; HCV replicon 1B): 1.1 pM; IC50 (HCV replicon 1AY93H; [4]): 0.0079 nM; IC50 (HCV replicon 1A; HCV replicon 1A): 3.3 pM; IC50 (HCV replicon 2B; [5]): 0.0244 nM
COC(=O)NC(C(=O)N1CCC[C@H]1c1ncc(-c2ccc3c(c2)cc2n3C(c3ccc(C4CCCC4)s3)Oc3cc(-c4cnc([C@@H]5CCCN5C(=O)[C@@H](NC(=O)OC)C(C)C)[nH]4)cc(F)c3-2)[nH]1)C1C[C@@H](C)O[C@@H](C)C1 (single isomer, unassigned) [Compound 658] |  |  |  |  |  |  |  | IC50 (HCV replicon 1AQ30D; [3]): 0.0643 nM; IC50 (HCV replicon 1B; HCV replicon 1B): 8.4 pM; IC50 (HCV replicon 1AY93H; [4]): 0.0089 nM; IC50 (HCV replicon 1A; HCV replicon 1A): 3.2 pM; IC50 (HCV replicon 2B; [5]): 0.0098 nM
COC(=O)NC(C(=O)N1CCC[C@H]1c1ncc(-c2cc(F)c3c(c2)OC(c2ccc(C)s2)n2c-3cc3cc(-c4cnc([C@@H]5CCCN5C(=O)[C@@H](NC(=O)OC)C5CCOCC5)[nH]4)ccc32)[nH]1)C(C)(C)F (single isomer, unassigned) [Compound 106] |  | 1.5 |  |  | 0.16 | 2.1 | 0.35 | IC50 (HCV replicon 1AQ30D; [6]): 0.03 nM
COC(=O)NC(C(=O)N1CCC[C@H]1c1ncc(-c2ccc3c(c2)cc2n3C(c3ccc(C4CCCC4)s3)Oc3cc(-c4cnc([C@@H]5CCCN5C(=O)[C@@H](NC(=O)OC)C(C)C)[nH]4)cc(F)c3-2)[nH]1)C1C[C@@H](C)O[C@@H](C)C1 (single isomer, unassigned) [Compound 656] |  |  |  |  |  |  |  | IC50 (HCV replicon 1AQ30D; [3]): 0.0481 nM; IC50 (HCV replicon 1B; HCV replicon 1B): 2.8 pM; IC50 (HCV replicon 1AY93H; [4]): 0.0025 nM; IC50 (HCV replicon 1A; HCV replicon 1A): 1.5 pM; IC50 (HCV replicon 2B; [5]): 0.0026 nM
COC(=O)NC(C(=O)N1CCC[C@H]1c1ncc(-c2ccc3c(c2)cc2n3C(c3ccc(CC4CC4)s3)Oc3cc(-c4cnc([C@@H]5CCCN5C(=O)[C@@H](NC(=O)OC)C(C)C)[nH]4)cc(F)c3-2)[nH]1)C1CCO[C@H](C)C1 (stereo partly drawn) [Compound 368] |  |  | 0.0047 | 0.0028 |  |  |  | IC50 (HCV replicon 1AQ30D; [6]): 0.0304 nM; IC50 (HCV replicon 1B; replicon 1B): 3.1 pM; IC50 (HCV replicon 1A; replicon 1A): 2.6 pM
COC(=O)NC(C(=O)N1CCC[C@H]1c1ncc(-c2ccc3c(c2)cc2n3C(c3ccc(C4CC4)s3)Oc3cc(-c4cnc([C@@H]5CCCN5C(=O)[C@@H](NC(=O)OC)C(C)C)[nH]4)cc(F)c3-2)[nH]1)C1CCOC(C)(C)C1 (stereo partly drawn) [Compound 218] | 0.055 | 3.1 |  |  | 0.004 | 2.6 | 0.004 | 
COC(=O)N[C@H](C(=O)N1CCC[C@H]1c1ncc(-c2cc(F)c3c(c2)OC(c2ccc(C(C)(C)O)s2)n2c-3cc3cc(-c4cnc([C@@H]5CCCN5C(=O)[C@@H](NC(=O)OC)C(C)C)[nH]4)ccc32)[nH]1)C(C)C (single isomer, unassigned) [Compound 84] | 0.5 |  | 0.012 | 0.012 |  |  |  | IC50 (HCV replicon 1B; replicon 1B): 2.5 pM; IC50 (HCV replicon 1A; replicon 1A): 3.3 pM
COC(=O)N[C@H](C(=O)N1CCC[C@H]1c1ncc(-c2ccc3c(c2)OC(c2ccc(C4CC4)s2)n2c-3c(F)c3cc(-c4cnc([C@@H]5CCCN5C(=O)[C@@H](NC(=O)OC)C(C)C)[nH]4)ccc32)[nH]1)C(C)C (single isomer, unassigned) [Compound 604] |  |  |  |  |  |  |  | IC50 (HCV replicon 1AQ30D; Hepatitis C virus, read-out: 1A Q30D IC50, HCV replicon 1A Q30D): 0.704 nM; IC50 (HCV replicon 1B; HCV replicon 1B): 1.1 pM; IC50 (HCV replicon 1AY93H; [4]): 0.0318 nM; IC50 (HCV replicon 1A; Hepatitis C virus, HCV replicon 1A): 1.3 pM; IC50 (HCV replicon 2B; [5]): 0.0624 nM
COC(=O)N[C@H](C(=O)N1CCC[C@H]1c1ncc(-c2cc(F)c3c(c2)OC(c2ccc(C4CC4)s2)n2c-3cc3cc(-c4cnc([C@@H]5CCCN5C(=O)[C@@H](NC(=O)OC)C5CCOCC5)[nH]4)ccc32)[nH]1)C(C)C (stereo partly drawn) [Compound 127] | 0.02 | 2.8 |  |  | 0.002 | 2 | 0.003 | 
COC(=O)N[C@H](C(=O)N1[C@@H]2C[C@@H]2C[C@H]1c1ncc(-c2cc(F)c3c(c2)OC(c2ccc(C4CC4)s2)n2c-3cc3cc(-c4cnc([C@@H]5C[C@H]6C[C@H]6N5C(=O)[C@@H](NC(=O)OC)C(C)C)[nH]4)ccc32)[nH]1)C(C)C (single isomer, unassigned) [Compound 87] | 0.15 | 1.3 | 0.002 | 0.19 |  | 1.2 |  | 
COC(=O)NC(C(=O)N1CCC[C@H]1c1ncc(-c2cc(F)c3c(c2)OC(c2ccc(C4CCC4)s2)n2c-3cc3cc(-c4cnc([C@@H]5CCCN5C(=O)[C@@H](NC(=O)OC)C5CCOCC5)[nH]4)ccc32)[nH]1)C(C)(C)F (stereo partly drawn) [Compound 250] | 0.013 | 2.9 |  |  | 0.003 | 2.2 | 0.001 | 
COC(=O)NC(C(=O)N1CCC[C@H]1c1ncc(-c2ccc3c(c2)cc2n3C(c3ccc(C4CCC4)s3)Oc3cc(-c4cnc([C@@H]5CCCN5C(=O)[C@@H](NC(=O)OC)C(C)C)[nH]4)cc(F)c3-2)[nH]1)C1C[C@@H](C)O[C@@H](C)C1 (stereo partly drawn) [Compound 374] | 0.0221 | 2.2 |  |  | 0.0035 | 1.5 | 0.0041 | 
COC(=O)NC(C(=O)N1CCC[C@@H]1c1ncc(-c2ccc3c(c2)cc2n3C(c3ccc(CC4CC4)s3)Oc3cc(-c4cnc([C@@H]5CCCN5C(=O)[C@@H](NC(=O)OC)C(C)C)[nH]4)cc(F)c3-2)[nH]1)C1C[C@@H](C)O[C@@H](C)C1 (stereo partly drawn) [Compound 376] | 0.0424 | 2.9 |  |  | 0.0023 | 2.6 | 0.006 | 
COC(=O)N[C@H](C(=O)N1CCC[C@H]1c1ncc(-c2cc(F)c3c(c2)OC(c2cc(F)c(C4CC4)s2)n2c-3cc3cc(-c4cnc([C@@H]5CCCN5C(=O)[C@@H](NC(=O)OC)C(C)C)[nH]4)ccc32)[nH]1)C(C)C (single isomer, unassigned) [Compound 72] | 0.78 | 1.5 | 0.01 | 0.089 |  |  |  | IC50 (HCV replicon 1A; replicon 1A): 2.6 pM
COC(=O)NC(C(=O)N1CCC[C@H]1c1ncc(-c2ccc3c(c2)cc2n3C(c3cc(C)c(C)s3)Oc3cc(-c4cnc([C@@H]5CCCN5C(=O)[C@@H](NC(=O)OC)C5CCOCC5)[nH]4)cc(F)c3-2)[nH]1)C(C)(C)F (stereo partly drawn) [Compound 128] | 0.044 | 3.6 |  |  | 0.03 | 3 | 0.045 | 
COC(=O)N[C@H](C(=O)N1CCC[C@H]1c1ncc(-c2cc(F)c3c(c2)OC(c2cc4nccnc4s2)n2c-3cc3cc(-c4cnc([C@@H]5CCCN5C(=O)[C@@H](NC(=O)OC)C(C)C)[nH]4)ccc32)[nH]1)C(C)C (single isomer, unassigned) [Compound 48] | 0.54 | 1.7 | 0.027 | 0.016 |  |  |  | IC50 (HCV replicon 1A; replicon 1A): 1.9 pM
